These results are taken from article PMC11091117, “A fluorescently-tagged tick kinin neuropeptide triggers peristalsis and labels tick midgut muscles” (Scientific Reports, 2024).

The test system of assay [1] is vector-only (V/O) CHO-K1 cells. Briefly: Confocal visualization on live vector-only cells with fluorescently labeled kinin peptide. The settings on record: 10 µM labeled peptide, 1 min, HBSS, confocal Leica SP8. It counts as binding. An excerpt: Three peptides were used in this study. These included: 1) the ligand for the endogenous tick kinin receptor from Rhipicephalus sanguineus, Rhisa-kinin 8 peptide of sequence GTGEDQAFSPWGamide (Rhisa-K-8; RK8; of identical sequence to Rhimi-K-8 in Rhipicephalus microplus)[48], 2) the same peptide but fluorescently labeled at the N-terminus with tetramethylrhodamine (TMR) a red fluorescent dye, designated TMR-Rhisa-K-8 (TMR-RK8), and 3) a labeled peptide synthesized with the scrambled sequence of the kinin ligand, designated TMR-Scrambled. The sequence of TMR-RK8 was TMR-C-GTGEDQAFSPWGamide). The TMR-Scrambled kinin (TMR-C-GTQWGPGFEADSamide) served as a negative control for tissue labeling. […]
The BMLK3 and V/O cells (5000–10,000 cells) were seeded separately in 200 µL selective media onto the two chambers of the cover glass (Lab-Tek Chambered Coverglass, 4.2 cm^2 area, #1.0 German borosilicate glass, sterile, Cat # 155,380, Thermo Fisher Scientific Inc., Walthams, MA) and grown in the incubator overnight at 37 °C and 5% CO2. The next day, cells would be ready for fluorescent labeling: the selective media was replaced with 200 µL HBSS to rinse the cells. […] Images were analyzed and computer-colored using Fiji/ImageJ (National Institutes of Health, Bethesda, MD). […]

The test system of assay [2] is tick kinin receptor in midgut muscles. Nature of the assay: Fluorescent labeling of live midgut ex vivo, confocal microscopy. It counts as binding, Rhipicephalus sanguineus. Conditions: 10 µM labeled peptide, 1 min. An excerpt: Three peptides were used in this study. These included: 1) the ligand for the endogenous tick kinin receptor from Rhipicephalus sanguineus, Rhisa-kinin 8 peptide of sequence GTGEDQAFSPWGamide (Rhisa-K-8; RK8; of identical sequence to Rhimi-K-8 in Rhipicephalus microplus)[48], 2) the same peptide but fluorescently labeled at the N-terminus with tetramethylrhodamine (TMR) a red fluorescent dye, designated TMR-Rhisa-K-8 (TMR-RK8), and 3) a labeled peptide synthesized with the scrambled sequence of the kinin ligand, designated TMR-Scrambled. The sequence of TMR-RK8 was TMR-C-GTGEDQAFSPWGamide). The TMR-Scrambled kinin (TMR-C-GTQWGPGFEADSamide) served as a negative control for tissue labeling. All peptides were custom-synthesized and purchased from GenScript (Piscataway, NJ, USA) with a purity of ≥ 95% and the cysteine in bold in both sequences was added to attach the label. Experiments were replicated with independently synthesized batches (4 mg each) of labeled and unlabeled peptides, for reproducibility. Unlabeled RK8 was used as a competitive ligand to verify target-specific binding of the labeled TMR-RK8 (see Ligand Competition Assay). For cell assays, the peptide stock solutions (100 µM) were made in 1% dimethyl sulfoxide (DMSO) in Hank’s balanced salt solution (HBSS, Thermo Fisher, Waltham, USA). For fluorescent cell labeling, peptide working solutions (10 µM) were prepared in HBSS from stock solutions. For assays on the midgut, peptides were solubilized and diluted in a tick physiological saline consisting of 140 mM NaCl, 5 mM KCl, 1 mM MgCl2, 5 mM CaCl2, 4 mM NaHCO3, and 5 mM HEPES, pH 7.2[49].
(§1) Individual female ticks were immobilized on a Petri dish filled with wax by submerging their legs in melted wax heated with a soldering pencil (Electronic Control Soldering Station EC 1000, Weller, Apex, North Carolina, USA). Females were dissected under physiological saline following the protocol described by Tidwell et al.[51]. The tick was cut along the edge of the scutum/alloscutum using a stainless steel #12 scalpel blade (Integra Miltex, York, PA, USA), after which the scutum was removed with a pair of fine forceps. To expose the midgut for removal, the tracheae, Malpighian tubules, ovaries, rectal sac, and synganglion were removed with fine forceps in that order. The midgut was then carefully removed and placed into 200 µL of fresh tick saline (See Reagents and Peptides) on a single gasketed incubation chamber (500 µL, Size 22 × 40 mm, Electron Microscopy Sciences, Hatfield, PA). The midguts were then rinsed three times with the physiological tick saline for subsequent fluorescent labeling or activity experiments.
To determine the location of the tick kinin receptor in the midgut of ticks, a commercially synthesized Rhisa-kinin peptide 8[52] conjugated with a stable, red fluorophore (TMR-RK8) or a similarly labeled peptide of scrambled sequence (TMR-Scrambled) were applied to freshly dissected midguts ex vivo. For this, midguts of unfed adult females were incubated in ice-cold saline for 10 min. The saline was removed before incubation in 200 µL of 4’,6-diamidino-2-phenylindole dihydrochloride (DAPI, Sigma, 1 µg/mL in saline) for 1 min and rinsed with saline (200 µL) once. After saline removal, the midgut was incubated for 1 min with 200 µL of 10 µM of either TMR-Scrambled kinin or TMR-RK8, then the labeled peptide solution was removed by pipette and the midgut was rinsed twice with 200 µL saline. […]

The test system of a further assay is tick midgut. Briefly: Tick midgut contraction assay with EthoVision video analysis. Set-up: species or system Rhipicephalus sanguineus.
Source text: as §1
Midguts were dissected from immobilized female ticks under tick saline, as described under the Midgut Dissection. Ten different midguts were used for each of the two treatments, and ticks were of the same age and batch and had been maintained under the same conditions. Dissected midguts were placed individually into 200 µL of tick saline for 10 min at 28 °C on a gasketed glass coverslip (500 µL, Size 22 × 40 mm) serving as incubation chamber. […] After the final wash and removal of saline, 200 µL of saline were added, and a microscopy coverslip (24 × 60 mm, VWR, Radnor, PA) was placed over the gasketed portion of the incubation chamber, which height (0.5 mm) fits to prevent the midgut from floating, but still allows midgut peristalsis. The midguts were observed and filmed under a dissecting microscope (Olympus SZ61, Japan) equipped with an Infinity 5 camera (Teledyne Lumenera, Ottawa, ON, Canada). All videos were recorded for 1 min with the INFINITY ANALYZE 7 software (Teledyne Lumenera) at 30 frames/second with a 2464 × 2056 resolution. The field of view in all videos recorded represents 4 × 3.5 mm to capture the entire tick midguts under saline. All video files in Windows Media Video (.wmv) format obtained from the Infinity Analyze 7 software were converted to the MP4 format using CloudConvert (cloudconvert.com, Lunaweb, Munich, Germany) for analyses with the EthoVision XT 17 software (Noldus Information Technology, Wageningen, The Netherlands).
We used the EthoVision 17 XT software to quantify the “activity” (pixel change) of the midguts from the videos recorded. This software defines activity as the percentage of pixels that have changed in the entire defined arena between the current image and previous image. The videos are recorded in 2464 × 2056 resolution and the arena is set to be the entire video screen. Video files were uploaded into the program and analyzed starting from time zero to the end of the 60 s video. Detection settings for activity included the activity threshold which was set to 5 to achieve zero detection when the midgut was immobile. Although the video captured 30 frames (images) per s, for the video analysis we chose a “sample rate” of 7 samples /s, with sample rate being the number of images from the video the EthoVision program analyzes per second. To calculate activity, each pixel of the video image was compared from one image to the next, and the proportion of pixel changes was calculated by dividing the number of pixels changed from one image to the next by the total number of pixels in the image. Care was given for the midgut to occupy most of the arena, as the activity analyses will reflect the midgut movement as a proportion of the total arena. Midgut activity is observed as pixel changes, which are represented by the red-colored pixels in the S4 video. The mean pixel change per midgut was then determined by averaging the pixel changes from all samples within the recording period. […]

“Also recorded” adds a separate entry of the source.

As to TMR-C-GTQWGPGFEADSamide [TMR-Scrambled], the “labeling of vector-only cells (in words)” value in assay [1] is reported as “not labeled by either peptide”. Also, the “non-specific labeling below midgut surface (in words)” value in assay [2] (midguts ex vivo, Z-slices under the surface) is “non-specific aggregation in lipid vesicles beneath the midgut surface; also recorded: non-specific labeling observed in lipid vesicles inside the midgut”. Also, the “labeling of midgut surface muscles (in words)” value in assay [2] (tick saline pH 7.2, midguts of unfed females ex vivo, DAPI and Alexa 488-phalloidin, confocal 20X/40X) is given as “did not significantly bind to the surface of the tick midgut; also recorded: did not show specific binding to the midgut of ticks; also recorded: specific muscle surface staining was not observed; also recorded: No signal; also recorded: grid-like fluorescent pattern was not observed”. Moreover, the “midgut contractions, S5 Video (in words)” value in the assay on tick midgut (1 µM TMR-Scrambled, after 10 min of exposure, 4X speed) is listed as “did not induce contractions”. In addition, the “midgut peristalsis/contractions (in words)” value in the assay with tick midgut (10 µM, 1 min, 28 °C, midguts of unfed females ex vivo, video recorded 1 min) is reported as “did not elicit peristalsis; also recorded: low to imperceptible activity; also recorded: did not display significant activity”. In addition, the “mean activity (mean pixel change, percentage of pixels changed in arena)” value in the assay on tick midgut (10 µM, 1 min, rinsed twice, 28 °C, tick saline, 60 s video, 7 samples/s, EthoVision XT 17, activity threshold 5, N = 10 midguts) is reported as “less than 0.1%”.
